In ChEMBL document CHEMBL4828748, “Design, synthesis, and pharmacological evaluation of sinomenine derivatives on rings A and C: Novel compounds screening for aplastic anemia targeting on cytotoxic T lymphocyte” (Eur J Med Chem, 2021):

Legend:
[1] = Cytotoxicity against C57BL/6J mouse peritoneal macrophages assessed as reduction of cell viability at 10 uM incubated for 24 hrs in presence of LPS by MTT assay; type: cell-based, Peritoneal macrophage
[2] = system: Peritoneal macrophage; assay: Inhibition of LPS-induced NO production in C57BL/6J mouse peritoneal macrophages at 10 uM measured after 24 hrs in presence of LPS by Griess reagent based assay relative to control; type: functional
[3] = Inhibition of mouse CTLL-2 cells activity at 10 uM incubated for 24 hrs; type: functional
[4] = Inhibition of mouse CTLL-2 cells activity incubated for 24 hrs; type: functional, cell-based
[5] = system: Peritoneal macrophage; assay: Inhibition of LPS-induced NO production in C57BL/6J mouse peritoneal macrophages at 1 uM measured after 24 hrs in presence of LPS by Griess reagent based assay relative to control; type: functional
[6] = Cytotoxicity against C57BL/6J mouse peritoneal macrophages assessed as reduction of cell viability at 1 uM incubated for 24 hrs in presence of LPS by MTT assay; type: cell-based, Peritoneal macrophage
[7] = Acute toxicity in po dosed Kunming mouse; type: organism-based; details: in vivo

Work on `CCCCCCCCCCCC(=O)OCc1cc(OC)c(OC(=O)CCCCCCCCCCC)c2c1C[C@H]1[C@H]3C=C(OC)C(=O)C[C@@]23CCN1C` yielded an inhibition at 24 h, 10 µM [1] of 6.2%, an inhibition at 10 µM [2] of 3.4% and an inhibition at 10 µM [3] of 6.8%.
For `C/C=C/C=C/C(=O)Oc1c(OC)cc(C=O)c2c1[C@@]13CCN(C)[C@@H](C2)[C@H]1C=C(OC)C(=O)C3`, the inhibition at 24 h, 10 µM [1] was 1.4%, the inhibition at 10 µM [2] was 46% and the inhibition at 10 µM [3] was 14%.
For `CCCCCCCC/C=C/CCCCCCCCCCCC(=O)Oc1c(OC)ccc2c1[C@@]13CCN(C)[C@@H](C2)[C@H]1C=C(OC)C(=O)C3`, the inhibition at 24 h, 10 µM [1] was 0.4%, the inhibition at 10 µM [2] was 3.5% and the inhibition at 10 µM [3] was 32.6%.
Compound `CCCCCCCCCCCCCCCC(=O)Oc1c(OC)ccc2c1[C@@]13CCN(C)[C@@H](C2)[C@H]1C[C@@H](OC)C(=O)C3` has an inhibition at 24 h, 10 µM [1] of 1.7%, an inhibition at 10 µM [2] of 93.5% and an inhibition at 10 µM [3] of 45.3%.
`CCCCCCCCCCCCCCCC(=O)Oc1c(OC)cc(C=O)c2c1[C@@]13CCN(C)[C@@H](C2)[C@H]1C=C(OC)C(=O)C3` gave an inhibition at 24 h, 10 µM [1] of -1.9%, an inhibition at 10 µM [2] of 21% and an inhibition at 10 µM [3] of 32.2%.
With `CCCCCCCCCCCCCCCC(=O)OCc1cc(OC)c(OC(=O)CCCCCCCCCCCCCCC)c2c1C[C@H]1[C@H]3C=C(OC)C(=O)C[C@@]23CCN1C` the inhibition at 24 h, 10 µM [1] was 5.3%, the inhibition at 10 µM [2] was -2.4% and the inhibition at 10 µM [3] was 20.5%.
Work on `COc1ccc2c(c1OC(C)=O)[C@@]13CCN(C)[C@@H](C2)[C@H]1C[C@@H](OC)C(=O)C3` yielded an inhibition at 24 h, 10 µM [1] of 3.2%, an inhibition at 10 µM [2] of 5.6% and an inhibition at 10 µM [3] of 12.5%.
Compound `CCCCCCCCCCCCCC(=O)OCc1cc(OC)c(OC(=O)CCCCCCCCCCCCC)c2c1C[C@H]1[C@H]3C=C(OC)C(=O)C[C@@]23CCN1C` has an inhibition at 24 h, 10 µM [1] of 2.5%, an inhibition at 10 µM [2] of 10.1% and an inhibition at 10 µM [3] of -0.9%.
With `COC1=C[C@@H]2[C@@H]3Cc4ccc(OC)c(OC(=O)/C=C/c5ccccc5)c4[C@]2(CCN3C)CC1=O` the inhibition at 24 h, 10 µM [1] was -3.3%, the inhibition at 10 µM [2] was 61.1% and the inhibition at 10 µM [3] was 5.4%.
`C/C=C/C[C@@H](C)[C@@H](O)[C@H]1C(=O)N[C@@H](CC)C(=O)N(C)CC(=O)N(C)[C@@H](CC(C)C)C(=O)N[C@@H](C(C)C)C(=O)N(C)[C@@H](CC(C)C)C(=O)N[C@@H](C)C(=O)N[C@H](C)C(=O)N(C)[C@@H](CC(C)C)C(=O)N(C)[C@@H](CC(C)C)C(=O)N(C)[C@@H](C(C)C)C(=O)N1C` [CYCLOSPORINE] gave an inhibition at 10 µM [3] of 96.8%.
`CCCCCCCCCCCC(=O)Oc1c(OC)ccc2c1[C@@]13CCN(C)[C@@H](C2)[C@H]1C=C(OC)C(=O)C3` showed an inhibition at 24 h, 10 µM [1] of 4.4%, an inhibition at 10 µM [2] of 42.7% and an inhibition at 10 µM [3] of 98.7%. It also gave an IC50 [4] of 3.8 µM.
For `CCCCCCCCCCCC(=O)Oc1c(OC)cc(C=O)c2c1[C@@]13CCN(C)[C@@H](C2)[C@H]1C=C(OC)C(=O)C3`, the inhibition at 24 h, 10 µM [1] was 0%, the inhibition at 10 µM [2] was 2.2% and the inhibition at 10 µM [3] was 25.2%.
Compound `C[C@@H]1C[C@H]2[C@@H]3CCC4=CC(=O)C=C[C@]4(C)[C@@]3(F)[C@@H](O)C[C@]2(C)[C@@]1(O)C(=O)CO` [DEXAMETHASONE] has an inhibition at 1 µM [5] of 62.8% and an inhibition at 24 h, 1 µM [6] of 17%.
`COc1ccc2c(c1O)[C@@]13CCN(C)[C@@H](C2)[C@H]1C[C@@H](OC)C(=O)C3` gave an inhibition at 24 h, 10 µM [1] of 6.5%, an inhibition at 10 µM [2] of 6.5% and an inhibition at 10 µM [3] of 5.8%.
`COc1ccc2c(c1OC(=O)c1cccnc1)[C@@]13CCN(C)[C@@H](C2)[C@H]1C[C@@H](OC)C(=O)C3` showed an inhibition at 24 h, 10 µM [1] of 3.1%, an inhibition at 10 µM [2] of 11.2% and an inhibition at 10 µM [3] of 9.1%.
Work on `CCCCCCCCCCCCCC(=O)Oc1c(OC)ccc2c1[C@@]13CCN(C)[C@@H](C2)[C@H]1C[C@@H](OC)C(=O)C3` yielded an inhibition at 24 h, 10 µM [1] of 4.6%, an inhibition at 10 µM [2] of 46.2% and an inhibition at 10 µM [3] of 98.3%. The IC50 [4] was 6.7 µM.
With `C/C=C/C=C/C(=O)Oc1c(OC)ccc2c1[C@@]13CCN(C)[C@@H](C2)[C@H]1C=C(OC)C(=O)C3` the inhibition at 24 h, 10 µM [1] was 0.3%, the inhibition at 10 µM [2] was 46.9% and the inhibition at 10 µM [3] was 14.3%.
`C=CCCCCCCCCC(=O)Oc1c(OC)ccc2c1[C@@]13CCN(C)[C@@H](C2)[C@H]1C=C(OC)C(=O)C3` gave an inhibition at 24 h, 10 µM [1] of 8.8%, an inhibition at 10 µM [2] of 94% and an inhibition at 10 µM [3] of 52.8%. It also gave an IC50 [4] of 7.6 µM.
With `C=CCCCCCCCCC(=O)OCc1cc(OC)c(OC(=O)CCCCCCCCC=C)c2c1C[C@H]1[C@H]3C=C(OC)C(=O)C[C@@]23CCN1C` the inhibition at 24 h, 10 µM [1] was 9.3%, the inhibition at 10 µM [2] was -0.9% and the inhibition at 10 µM [3] was 33.9%.
`COC1=C[C@@H]2[C@@H]3Cc4ccc(OC)c(OC(=O)c5cccnc5)c4[C@]2(CCN3C)CC1=O` gave an inhibition at 24 h, 10 µM [1] of 0.8%, an inhibition at 10 µM [2] of 14% and an inhibition at 10 µM [3] of 3.2%.
Work on `CCCCCCCC/C=C/CCCCCCCCCCCC(=O)Oc1c(OC)cc(C=O)c2c1[C@@]13CCN(C)[C@@H](C2)[C@H]1C=C(OC)C(=O)C3` yielded an inhibition at 24 h, 10 µM [1] of 0.5%, an inhibition at 10 µM [2] of 18.6% and an inhibition at 10 µM [3] of 29.6%.
Work on `CCCCCCCC/C=C/CCCCCCCCCCCC(=O)OCc1cc(OC)c(OC(=O)CCCCCCCCCCC/C=C/CCCCCCCC)c2c1C[C@H]1[C@H]3C=C(OC)C(=O)C[C@@]23CCN1C` yielded an inhibition at 24 h, 10 µM [1] of 0.2%, an inhibition at 10 µM [2] of 1.1% and an inhibition at 10 µM [3] of 6.7%.
For `C/C=C/C=C/C(=O)Oc1c(OC)ccc2c1[C@@]13CCN(C)[C@@H](C2)[C@H]1C[C@@H](OC)C(=O)C3`, the inhibition at 24 h, 10 µM [1] was 5.1%, the inhibition at 10 µM [2] was 40.7% and the inhibition at 10 µM [3] was 1.1%.
With `CCCCCCCCCCCC(=O)Oc1c(OC)ccc2c1[C@@]13CCN(C)[C@@H](C2)[C@H]1C[C@@H](OC)C(=O)C3` the inhibition at 24 h, 10 µM [1] was 3.1%, the inhibition at 10 µM [2] was 5% and the inhibition at 10 µM [3] was 96.7%. For the same compound, the IC50 [4] was 4.4 µM.
For `COC1=C[C@@H]2[C@@H]3Cc4c(CO)cc(OC)c(O)c4[C@]2(CCN3C)CC1=O`, the inhibition at 24 h, 10 µM [1] was 1.2%, the inhibition at 10 µM [2] was 3.6% and the inhibition at 10 µM [3] was 6.1%.
`COC1=C[C@@H]2[C@@H]3Cc4ccc(OC)c(O)c4[C@]2(CCN3C)CC1=O` [SINOMENINE] showed an inhibition at 24 h, 10 µM [1] of 1.3%, an inhibition at 10 µM [2] of 7.5% and an inhibition at 10 µM [3] of 2.8%. For the same compound, the LD50 [7] was 1100 mg/kg.
In the case of `COC1=C[C@@H]2[C@@H]3Cc4c(C=O)cc(OC)c(O)c4[C@]2(CCN3C)CC1=O`, the inhibition at 24 h, 10 µM [1] is reported as 2.5%, the inhibition at 10 µM [2] is reported as 4.2% and the inhibition at 10 µM [3] is reported as 3.5%.
In the case of `C=CCCCCCCCCC(=O)Oc1c(OC)cc(C=O)c2c1[C@@]13CCN(C)[C@@H](C2)[C@H]1C=C(OC)C(=O)C3`, the inhibition at 24 h, 10 µM [1] is reported as 1.3%, the inhibition at 10 µM [2] is reported as 11.6% and the inhibition at 10 µM [3] is reported as 23.4%.
In the case of `COc1ccc2c(c1OC(=O)/C=C/c1ccccc1)[C@@]13CCN(C)[C@@H](C2)[C@H]1C[C@@H](OC)C(=O)C3`, the inhibition at 24 h, 10 µM [1] is reported as 4.8%, the inhibition at 10 µM [2] is reported as 57.4% and the inhibition at 10 µM [3] is reported as 11.6%.
`CCCCCCCCCCCCCC(=O)Oc1c(OC)cc(C=O)c2c1[C@@]13CCN(C)[C@@H](C2)[C@H]1C=C(OC)C(=O)C3` gave an inhibition at 24 h, 10 µM [1] of 0.5%, an inhibition at 10 µM [2] of 33.9% and an inhibition at 10 µM [3] of 90.8%. For the same compound, the IC50 [4] was 3.7 µM.
For `COC1=C[C@@H]2[C@@H]3Cc4c(C=O)cc(OC)c(OC(C)=O)c4[C@]2(CCN3C)CC1=O`, the inhibition at 24 h, 10 µM [1] was 0.2%, the inhibition at 10 µM [2] was 0.6% and the inhibition at 10 µM [3] was 10.3%.
`CCCCCCCCCCCCCC(=O)Oc1c(OC)ccc2c1[C@@]13CCN(C)[C@@H](C2)[C@H]1C=C(OC)C(=O)C3` showed an inhibition at 24 h, 10 µM [1] of 2.7%, an inhibition at 10 µM [2] of 4.3% and an inhibition at 10 µM [3] of 88.1%. The IC50 [4] was 4.3 µM.
Work on `C/C=C/C=C/C(=O)OCc1cc(OC)c(OC(=O)/C=C/C=C/C)c2c1C[C@H]1[C@H]3C=C(OC)C(=O)C[C@@]23CCN1C` yielded an inhibition at 24 h, 10 µM [1] of 6.1%, an inhibition at 10 µM [2] of 90.8% and an inhibition at 10 µM [3] of 6.2%.
Compound `COC1=C[C@@H]2[C@@H]3Cc4c(C=O)cc(OC)c(OC(=O)/C=C/c5ccccc5)c4[C@]2(CCN3C)CC1=O` has an inhibition at 24 h, 10 µM [1] of 0.6%, an inhibition at 10 µM [2] of 21.6% and an inhibition at 10 µM [3] of 4.7%.
